Common to all, as to assay type: cell-based
The test system of experiment [1] is Calu-1 cells. In words: Anti-proliferation (viability) of NSCLC Calu-1 cells, 3 days (Table 7, FIG. 2B). The conditions noted are these: Homo sapiens, 72 h; Calu-1 cells, 3 days, 10-point serial dilution; read-out: GI IC50 in Calu-1. The gist of the method:
(§1)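 Viability is read after treatment with compounds titrated over ten serial dilution points, with exposure lasting three days for the NSCLC line and six days for the breast cancer line.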

In experiment [2] the test system is T47D cells. In words: Anti-proliferation (viability) of ER+ breast cancer T47D cells, 6 days (Table 7, FIG. 2B). The conditions noted are these: Homo sapiens, 144 h; T47D cells, 6 days, 10-point serial dilution; read-out: GI IC50 in T47D. The gist of the method: as §1
Experiment [3] has as its system MCF7 cells. As to the kind of experiment: Anti-proliferation (viability) of MCF7 cells (Table 7, FIG. 2B). The conditions noted are these: Homo sapiens, MCF7, MCF7 cells, 3-6 days, 10-point serial dilution; read-out: GI IC50 in MCF-7.
Experiment [4] has as its target CDK4 (Homo sapiens, UniProt P11802+Q16531). In words: CDK4 percentage degradation in Calu-1 cells (Table 6). Also on record: Cells that express cyclin D1-3 and CDK4/6 proteins were treated with heterobifunctional compounds; endogenous in cells; host or cells: Calu-1. The conditions noted are these: 16 hours; for inhibition at 0.04 µM: 40 nM; for inhibition at 0.2 µM: 200 nM. The gist of the method:
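Calu-1 cells exposed to heterobifunctional compounds at 40 nM or 200 nM for 16 h. Cyclin D1 and CDK4 levels measured by Western blot of RIPA lysates (BCA-normalised loading), bands quantified by densitometry and expressed as percentage degradation.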

The structures appear in SMILES notation.

CDK4, sequence (P11802 2-303 limits assumed): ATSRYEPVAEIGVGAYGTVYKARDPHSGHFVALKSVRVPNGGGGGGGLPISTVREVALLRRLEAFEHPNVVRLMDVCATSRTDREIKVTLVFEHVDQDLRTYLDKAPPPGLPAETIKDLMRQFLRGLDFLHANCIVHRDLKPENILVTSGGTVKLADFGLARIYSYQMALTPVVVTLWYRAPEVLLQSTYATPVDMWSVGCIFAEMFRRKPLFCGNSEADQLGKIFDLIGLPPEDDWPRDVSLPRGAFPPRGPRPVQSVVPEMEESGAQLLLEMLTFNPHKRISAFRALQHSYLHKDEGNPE
CDK4, sequence (P24385 whole entry partner): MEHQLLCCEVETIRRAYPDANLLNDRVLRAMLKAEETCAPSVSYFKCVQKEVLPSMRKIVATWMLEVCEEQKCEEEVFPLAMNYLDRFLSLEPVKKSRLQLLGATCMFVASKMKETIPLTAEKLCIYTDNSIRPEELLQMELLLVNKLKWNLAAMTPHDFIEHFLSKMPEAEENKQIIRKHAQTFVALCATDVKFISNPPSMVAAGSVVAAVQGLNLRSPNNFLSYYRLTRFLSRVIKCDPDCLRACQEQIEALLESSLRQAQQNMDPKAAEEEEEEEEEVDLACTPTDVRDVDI
CDK4, sequence (Q16531 2-1140 limits assumed): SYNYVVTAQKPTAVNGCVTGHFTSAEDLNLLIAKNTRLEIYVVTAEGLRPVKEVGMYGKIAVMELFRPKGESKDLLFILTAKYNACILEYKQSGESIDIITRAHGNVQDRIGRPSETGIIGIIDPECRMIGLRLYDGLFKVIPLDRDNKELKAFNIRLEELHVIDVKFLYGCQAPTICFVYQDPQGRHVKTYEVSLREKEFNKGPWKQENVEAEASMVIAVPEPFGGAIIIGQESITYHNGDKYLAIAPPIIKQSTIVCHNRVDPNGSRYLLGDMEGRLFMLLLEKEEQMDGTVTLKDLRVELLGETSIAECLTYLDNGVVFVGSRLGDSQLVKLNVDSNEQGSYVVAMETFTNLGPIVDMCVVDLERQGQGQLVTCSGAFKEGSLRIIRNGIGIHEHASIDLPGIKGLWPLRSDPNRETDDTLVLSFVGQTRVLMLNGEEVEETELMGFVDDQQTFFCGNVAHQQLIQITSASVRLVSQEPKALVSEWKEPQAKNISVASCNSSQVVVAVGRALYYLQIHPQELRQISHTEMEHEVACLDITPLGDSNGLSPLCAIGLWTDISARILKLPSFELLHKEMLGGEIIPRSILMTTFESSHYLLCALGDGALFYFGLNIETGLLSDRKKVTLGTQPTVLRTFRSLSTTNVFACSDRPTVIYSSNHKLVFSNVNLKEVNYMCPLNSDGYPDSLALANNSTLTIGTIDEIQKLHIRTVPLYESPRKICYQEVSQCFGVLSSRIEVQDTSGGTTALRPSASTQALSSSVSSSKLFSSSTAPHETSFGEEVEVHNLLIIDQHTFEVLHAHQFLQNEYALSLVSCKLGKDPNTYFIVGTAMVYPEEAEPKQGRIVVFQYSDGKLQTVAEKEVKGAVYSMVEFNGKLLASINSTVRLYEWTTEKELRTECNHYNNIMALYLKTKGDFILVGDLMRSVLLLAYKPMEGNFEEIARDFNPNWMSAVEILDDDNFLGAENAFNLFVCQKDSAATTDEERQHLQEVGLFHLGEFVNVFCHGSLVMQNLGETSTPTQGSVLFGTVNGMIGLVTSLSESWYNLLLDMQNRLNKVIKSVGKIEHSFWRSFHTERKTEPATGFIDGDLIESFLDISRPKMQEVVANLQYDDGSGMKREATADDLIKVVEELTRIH

For `CNc1ccc(C(=O)Nc2ccc(N(C)C)nn2)c(Nc2cc(CCNC(=O)CN3CCN(c4ccc(Nc5ncc6c(C)c(C(C)=O)c(=O)n(C7CCCC7)c6n5)nc4)CC3)no2)n1` [CPD-26, 2-((3-(2-(2-(4-(6-((6-Acetyl-8-cyclopentyl-5-methyl-7-oxo-7,8-dihydropyrido[2,3-d]pyrimidin-2-yl)amino)pyridin-3-yl)piperazin-1-yl)acetamido)ethyl)isoxazol-5-yl)amino)-N-(6-(dimethylamino)pyridazin-3-yl)-6-(methylamino)nicotinamide], the IC50 (commonly the concentration that inhibits the measured activity by half) in experiment [1] was 10 to 50 nM; in experiment [2], 50 to 100 nM; in experiment [3], more than 100 nM. Further, the inhibition (usually the relative decrease from the control value, in per cent) at 0.04 µM in experiment [4] is 50 to 80%. The inhibition at 0.2 µM in experiment [4] was 50 to 80%.

`CC(=O)c1c(C)c2cnc(Nc3ccc(N4CCN(CC(=O)NCCCCCNc5nc(C6CC6)ccc5C(=O)Nc5ccc(N(C)C)nn5)CC4)cn3)nc2n(C2CCCC2)c1=O` [CPD-27, 2-((5-(2-(4-(6-((6-Acetyl-8-cyclopentyl-5-methyl-7-oxo-7,8-dihydropyrido[2,3-d]pyrimidin-2-yl)amino)pyridin-3-yl)piperazin-1-yl)acetamido)pentyl)amino)-6-cyclopropyl-N-(6-(dimethylamino)pyridazin-3-yl)nicotinamide]: the IC50 in experiment [1] is not above 10 nM; in experiment [2] it was 50 to 100 nM; in experiment [3], 50 to 100 nM. The inhibition at 0.04 µM in experiment [4] is more than 80%. The molecule also registered an inhibition at 0.2 µM in experiment [4] of more than 80%.

As to `CNc1ccc(C(=O)Nc2ccc(N(C)C)nn2)c(NCCCCn2cc(CN3CCN(c4ccc(Nc5ncc6c(C)c(C(C)=O)c(=O)n(C7CCCC7)c6n5)nc4)CC3)nn2)n1` [CPD-30, 2-((4-(4-((4-(6-((6-Acetyl-8-cyclopentyl-5-methyl-7-oxo-7,8-dihydropyrido[2,3-d]pyrimidin-2-yl)amino)pyridin-3-yl)piperazin-1-yl)methyl)-1H-1,2,3-triazol-1-yl)butyl)amino)-N-(6-(dimethylamino)pyridazin-3-yl)-6-(methylamino)nicotinamide], the IC50 in experiment [1] is 10 to 50 nM; in experiment [2], 50 to 100 nM; in experiment [3] it was more than 100 nM. The molecule further had an inhibition at 0.04 µM in experiment [4] of 50 to 80%. In experiment [4], this molecule had an inhibition at 0.2 µM of more than 80%.

As to `CNc1ccc(C(=O)Nc2ccc3c(ccn3C)n2)c(NCCCCCNC(=O)CN2CCN(c3ccc(Nc4ncc5c(C)c(C(C)=O)c(=O)n(C6CCCC6)c5n4)nc3)CC2)n1` [CPD-33, 2-((5-(2-(4-(6-((6-Acetyl-8-cyclopentyl-5-methyl-7-oxo-7,8-dihydropyrido[2,3-d]pyrimidin-2-yl)amino)pyridin-3-yl)piperazin-1-yl)acetamido)pentyl)amino)-N-(1-methyl-1H-pyrrolo[3,2-b]pyridin-5-yl)-6-(methylamino)nicotinamide], the figures for the IC50 in experiment [1], in experiment [2] and in experiment [3] were 10 to 50 nM, 50 to 100 nM and more than 100 nM, respectively. Also, in experiment [4], the inhibition at 0.04 µM was 50 to 80%. Also, the inhibition at 0.2 µM in experiment [4] is more than 80%.

As to `CNc1ccc(C(=O)Nc2ccc(N(C)C)nn2)c(NC2CC(CCNC(=O)CN3CCN(c4ccc(Nc5ncc6c(C)c(C(C)=O)c(=O)n(C7CCCC7)c6n5)nc4)CC3)C2)n1` (centres unmarked) [CPD-34, 2-((3-(2-(2-(4-(6-((6-Acetyl-8-cyclopentyl-5-methyl-7-oxo-7,8-dihydropyrido[2,3-d]pyrimidin-2-yl)amino)pyridin-3-yl)piperazin-1-yl)acetamido)ethyl)cyclobutyl)amino)-N-(6-(dimethylamino)pyridazin-3-yl)-6-(methylamino)nicotinamide], the values for the concentration for half-maximal inhibition (IC50) in experiment [1], in experiment [2] and in experiment [3] were not above 10 nM, not above 50 nM and less than 50 nM, respectively. In experiment [4], the inhibition at 0.04 µM was more than 80%. This molecule also gave an inhibition at 0.2 µM in experiment [4] of more than 80%.

As for `CNc1ccc(C(=O)Nc2ccc3ncn(C)c3n2)c(NCCCCCNC(=O)CN2CCN(c3ccc(Nc4ncc5c(C)c(C(C)=O)c(=O)n(C6CCCC6)c5n4)nc3)CC2)n1` [CPD-38, 2-((5-(2-(4-(6-((6-Acetyl-8-cyclopentyl-5-methyl-7-oxo-7,8-dihydropyrido[2,3-d]pyrimidin-2-yl)amino)pyridin-3-yl)piperazin-1-yl)acetamido)pentyl)amino)-N-(3-methyl-3H-imidazo[4,5-b]pyridin-5-yl)-6-(methylamino)nicotinamide], the IC50 was not above 10 nM in experiment [1], 50 to 100 nM in experiment [2] and more than 100 nM in experiment [3]. The molecule also showed an inhibition at 0.04 µM in experiment [4] of 50 to 80%. This molecule gave an inhibition at 0.2 µM in experiment [4] of more than 80%.

Take `CNc1ccc(C(=O)Nc2cc(C)n(C)n2)c(NCCCCCNC(=O)CN2CCN(c3ccc(Nc4ncc5c(C)c(C(C)=O)c(=O)n(C6CCCC6)c5n4)nc3)CC2)n1` [CPD-50, 2-((5-(2-(4-(6-((6-acetyl-8-cyclopentyl-5-methyl-7-oxo-7,8-dihydropyrido[2,3-d]pyrimidin-2-yl)amino)pyridin-3-yl)piperazin-1-yl)acetamido)pentyl)amino)-N-(1,5-dimethyl-1H-pyrazol-3-yl)-6-(methylamino)nicotinamide]: the figures for the concentration for half-maximal inhibition (IC50) in experiment [1], in experiment [2] and in experiment [3] were not above 10 nM, 50 to 100 nM and less than 50 nM, respectively. For the same molecule, the inhibition at 0.04 µM in experiment [4] is 50 to 80%. Moreover, in experiment [4], the inhibition at 0.2 µM fell in the range of 50 to 80%.

Take `CNc1ccc(C(=O)Nc2cccc(C3CC3)n2)c(NCCCCCNC(=O)CN2CCN(c3ccc(Nc4ncc5c(C)c(C(C)=O)c(=O)n(C6CCCC6)c5n4)nc3)CC2)n1` [CPD-51, 2-((5-(2-(4-(6-((6-Acetyl-8-cyclopentyl-5-methyl-7-oxo-7,8-dihydropyrido[2,3-d]pyrimidin-2-yl)amino)pyridin-3-yl)piperazin-1-yl)acetamido)pentyl)amino)-N-(6-cyclopropylpyridin-2-yl)-6-(methylamino)nicotinamide]: the results for the IC50 in experiment [1], in experiment [2] and in experiment [3] were not above 10 nM, 50 to 100 nM and 50 to 100 nM, respectively. Besides, the inhibition at 0.04 µM in experiment [4] was 50 to 80%. The inhibition at 0.2 µM in experiment [4] lay in the range of 50 to 80%.

As for `CCc1ccc(C(=O)Nc2ccc(N(C)C)nn2)c(NCCCCCNC(=O)CN2CCN(c3ccc(Nc4ncc5c(C)c(C(C)=O)c(=O)n(C6CCCC6)c5n4)nc3)CC2)n1` [CPD-54, 2-((5-(2-(4-(6-((6-Acetyl-8-cyclopentyl-5-methyl-7-oxo-7,8-dihydropyrido[2,3-d]pyrimidin-2-yl)amino)pyridin-3-yl)piperazin-1-yl)acetamido)pentyl)amino)-N-(6-(dimethylamino)pyridazin-3-yl)-6-ethylnicotinamide], the values for the half-maximal inhibitory concentration (IC50) in experiment [1], in experiment [2] and in experiment [3] were not above 10 nM, 50 to 100 nM and less than 50 nM, respectively. The molecule further yielded an inhibition at 0.04 µM in experiment [4] of 50 to 80%. The inhibition at 0.2 µM in experiment [4] was 50 to 80%.

For the molecule `CNc1ccc(C(=O)Nc2ccc(N(C)C)nn2)c(NC2CC3(C2)CN(C(=O)CCN2CCN(c4ccc(Nc5ncc6c(C)c(C(C)=O)c(=O)n(C7CCCC7)c6n5)nc4)CC2)C3)n1` [CPD-62, 2-((2-(3-(4-(6-((6-Acetyl-8-cyclopentyl-5-methyl-7-oxo-7,8-dihydropyrido[2,3-d]pyrimidin-2-yl)amino)pyridin-3-yl)piperazin-1-yl)propanoyl)-2-azaspiro[3.3]heptan-6-yl)amino)-N-(6-(dimethylamino)pyridazin-3-yl)-6-(methylamino)nicotinamide], the figures for the IC50 in experiment [1], in experiment [2] and in experiment [3] were not above 10 nM, not above 50 nM and less than 50 nM, respectively. Besides, the inhibition at 0.04 µM in experiment [4] is more than 80%. Moreover, the inhibition at 0.2 µM in experiment [4] was more than 80%.

The values are drawn from US20260297081A1, “COMPOUNDS AND METHODS OF TREATING CANCERS” (Cullgen Inc., priority 2023, published 2026).
